# Measurements: patent US20140134261A1 (priority 2012, published 2014)
# Where two headings read alike, the source gives them in different places.
# Columns and labels:
# [1] = biological target: μ-opiate receptor (Homo sapiens, UniProt P35372); settings: cited from earlier work
# [2] = biological target: TRPV1 receptor (Homo sapiens, UniProt Q8NER1); settings: cited from earlier work
# [3] = humans, after ingestion of 26.6 mg of capsaicin; cited from earlier work
# [4] = tested on: cytochrome (CYP) enzymes present in the human liver; settings: in vitro; cited from earlier work
# [5] = in vitro; cited from earlier work
# [6] = tested on: Rat peritoneal macrophages; settings: 10 μM, pre-incubated 1 h; cited from earlier work
# [7] = tested on: macrophages; settings: preincubation with 10 μM; cited from earlier work
# [8] = male rats, diet with 30% lard, capsaicin at 0.14% of the diet; cited from earlier work
# [9] = tested on: PC-3 prostate cancer xenografts; settings: given orally; cited from earlier work
# [10] = tested on: NF-κ-B; settings: pretreatment of human myeloid ML-1a cells; cited from earlier work
# [11] = 1 mg/kg systemic, before cecal ligation and puncture, late sepsis period; cited from earlier work
# Chain of μ-opiate receptor (P35372 whole entry): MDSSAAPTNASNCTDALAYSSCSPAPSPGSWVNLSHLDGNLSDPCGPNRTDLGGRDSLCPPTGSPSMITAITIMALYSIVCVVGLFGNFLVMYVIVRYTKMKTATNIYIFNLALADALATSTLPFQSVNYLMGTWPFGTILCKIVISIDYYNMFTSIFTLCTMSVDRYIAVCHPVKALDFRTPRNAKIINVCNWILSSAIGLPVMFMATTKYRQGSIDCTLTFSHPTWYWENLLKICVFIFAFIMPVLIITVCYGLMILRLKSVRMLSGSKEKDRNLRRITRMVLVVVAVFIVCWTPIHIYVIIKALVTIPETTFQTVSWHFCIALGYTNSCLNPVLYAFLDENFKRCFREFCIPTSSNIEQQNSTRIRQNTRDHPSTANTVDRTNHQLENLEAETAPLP
# Chain of TRPV1 receptor (Q8NER1 whole entry): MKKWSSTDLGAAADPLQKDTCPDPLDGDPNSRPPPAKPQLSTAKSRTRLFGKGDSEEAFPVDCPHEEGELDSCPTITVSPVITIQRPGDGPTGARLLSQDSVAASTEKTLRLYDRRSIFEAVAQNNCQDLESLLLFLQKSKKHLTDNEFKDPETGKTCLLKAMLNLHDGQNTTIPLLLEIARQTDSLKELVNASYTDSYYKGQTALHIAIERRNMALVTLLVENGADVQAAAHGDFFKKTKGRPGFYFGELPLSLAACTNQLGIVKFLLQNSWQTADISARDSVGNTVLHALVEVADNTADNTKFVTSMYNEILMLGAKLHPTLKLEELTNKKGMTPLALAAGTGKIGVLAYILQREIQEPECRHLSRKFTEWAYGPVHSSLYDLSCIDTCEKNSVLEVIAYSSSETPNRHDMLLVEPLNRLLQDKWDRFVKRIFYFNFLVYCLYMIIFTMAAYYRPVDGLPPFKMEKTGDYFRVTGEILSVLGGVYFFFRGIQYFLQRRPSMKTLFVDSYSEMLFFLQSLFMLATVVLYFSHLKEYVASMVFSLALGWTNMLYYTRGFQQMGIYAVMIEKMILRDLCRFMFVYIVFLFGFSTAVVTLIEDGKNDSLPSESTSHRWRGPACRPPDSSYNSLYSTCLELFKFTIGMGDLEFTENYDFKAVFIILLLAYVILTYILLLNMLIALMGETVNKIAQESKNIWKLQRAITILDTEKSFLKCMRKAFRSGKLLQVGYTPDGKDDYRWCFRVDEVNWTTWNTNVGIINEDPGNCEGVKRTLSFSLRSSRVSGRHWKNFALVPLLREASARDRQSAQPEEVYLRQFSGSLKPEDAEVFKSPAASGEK
compound,measurement,setting,value
0-desmethyltramadol [Example M1],analgesic potency relative to the parent drug tramadol,[1],at least twice the analgesic potency
"Palmitoyl Ester of Capsaicin USP (Formula I, R=—(CH2)14—CH3) [capsaicin palmitate]",burning pain at the site of application,"human, in vivo",almost no burning pain
same,burning sensation at the site of application,"human, in vivo",did not cause any burning sensation
"COc1cc(CNC(=O)CCCCC=CC(C)C)ccc1O [capsaicin, 8-methyl-N-vanillyl-6-nonenamide]",duration of pain at the site of application,about 1 gram of 8% capsaicin ointment on forehand,~48 h
same,burning sensation at the site of application,"about 1 gram ointment (14.25% capsaicin palmitate or 8% capsaicin) on forehand, six healthy volunteers, asked after 30 minutes",intense burning
same,duration of pain and inflammation,application of 8% capsaicin,almost a day
same,time to intense pain at the site of application,application of 8% capsaicin,≤ 15 min
same,burning pain at the site of application,"topical ointment, about 14.25% capsaicin palmitate (about 8% of capsaicin) or 8% capsaicin, no topical anesthetic",intense pain
same,affinity as exogenous agonist for the TRPV1 receptor,[2],low nanomolar affinity
same,Cmax,[3],2.5 (0.1) ng ml^−1
same,Tmax,[3],47.1 (2.0) min
same,metabolism by CYP enzymes in the human liver,[4],metabolized rapidly
same,metabolism in human skin,[5],quite slow
same,inhibition of incorporation of arachidonic acid into membrane lipids,[6],76%
same,inhibition of leukotriene B4,[6],46%
same,inhibition of leukotriene C4,[6],48%
same,inhibition of prostaglandin E2,[6],48%
same,"superoxide anions, hydrogen peroxide, and nitrite radical production",[7],completely inhibited
same,serum triglyceride levels versus high-fat diet without capsaicin,[8],significantly lower
same,growth of xenografts as measured by size,[9],significantly slowed
same,TNF-mediated activation of NF-κ-B,[10],blocked
same,"lipid peroxidation in various tissues, including lung and liver",[11],decreased
